Here are results for 2 compounds from patent US8067603B2 (priority 2003, dated 2011).

For one test, the system named is Male Wistar rats. The note with it: rat, in vivo.
The next test relates to rats. The settings on record: single i.v. dose 10 minutes before agonist: J-113397 1 mg/kg, naloxone 2 mg/kg.

Structures are written as SMILES. Values joined by “and” are separate entries in the source; they are usually repeats but may differ in a detail not shown here. Equal values may be shown once.

For `C=CCN1CC[C@]23c4c5ccc(O)c4O[C@H]2C(=O)CC[C@@]3(O)[C@H]1C5` [naloxone], in the test on Male Wistar rats, the “Mean ± S.E.M. food intake 120 min after ligand administration” value is 0.09 ± 0.09 g and 0.05 ± 0.001 g. Also, the “effect on food intake versus the vehicle treated group” value in the test on Male Wistar rats (ip) is reported as “no effect on food intake”. For the same compound, the “effect on the nociceptin-induced decrease in blood pressure” value in the test on rats is “without effect”.

As to `CN1CC[C@]23c4c5ccc(O)c4O[C@H]2[C@@H](O)C=C[C@H]3[C@H]1C5` [Morphine, morphine], in the test with Male Wistar rats (ip), the “effect on food intake versus the vehicle treated group” value is listed as “dose-dependent increase in food-intake” and the “increase in food intake: antagonism by the opiate receptor antagonist naloxone” value is recorded as “antagonized”.
